# Test system: yeast genes (level of expressed mRNA)
# Experiment: DNA chip analysis of expressed mRNA of yeast genes after 2 h culture with a toxic chemical substance
# Assay type: cell-based, Saccharomyces cerevisiae S288C
# How it was run: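 S. cerevisiae S288C grown at 25° C in YPD; toxicant added at log phase at growth-inhibitory, non-lethal levels for 2 h, untreated cells as control. Poly(A) mRNA reverse-transcribed with Cy3/Cy5-dUTP, hybridized to whole-genome chip at 65° C >12 h; value is fluorescence ratio versus untreated.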
substance,measurement,setting,value
manganese ethylenebis(dithiocarbamate) [(8)],The level of expressed mRNA in the presence of chemical substance/,"yeast gene YNL074C, ratio to control without chemical substance, 2 h culture",0.6
same,The level of expressed mRNA in the presence of chemical substance/,"yeast gene YNL092W, ratio to control without chemical substance, 2 h culture",0.9
same,The level of expressed mRNA in the presence of chemical substance/The level of expressed mRNA in the absence of chemical substance,yeast gene YNL093W,0.8
same,The level of expressed mRNA in the presence of chemical substance/,"yeast gene YNL115C, ratio to control without chemical substance, 2 h culture",0.8
same,The level of expressed mRNA in the presence of chemical substance/,"yeast gene YNL156C, ratio to control without chemical substance, 2 h culture",1.2
same,The level of expressed mRNA in the presence of chemical substance/,"yeast gene YNL234W, ratio to control without chemical substance, 2 h culture",1.3
same,The level of expressed mRNA in the presence of chemical substance/,"yeast gene YNL281W, ratio to control without chemical",1.2
same,The level of expressed mRNA in the presence of chemical substance/,"yeast gene YNL305C, ratio to control without chemical",0.7
same,The level of expressed mRNA in the presence of chemical substance/The level of expressed mRNA in the absence of chemical substance,yeast gene YNL333W,2.1
same,The level of expressed mRNA in the presence of chemical substance/The level of expressed mRNA in the absence of chemical substance,yeast gene YNR010W,1.1
same,The level of expressed mRNA in the presence of chemical substance/,"yeast gene YNR068C, ratio to control without chemical",1.1
same,The level of expressed mRNA in the presence of chemical substance/The level of expressed mRNA in the absence of chemical substance,yeast gene YNR069C,1.4
same,The level of expressed mRNA in the presence of chemical substance/in the absence of chemical substance,yeast gene YNR072W,0.9
same,The level of expressed mRNA in the presence of chemical substance/The level of expressed mRNA in the absence of chemical substance,yeast gene YOL013C,1.0
same,The level of expressed mRNA in the presence of chemical substance/,"yeast gene YOL032W, ratio to control without chemical",1.5
same,The level of expressed mRNA in the presence of chemical substance/,"yeast gene YOL036W, ratio to control without chemical",0.8
same,The level of expressed mRNA in the presence of chemical substance/,"yeast gene YOL047C, ratio to control without chemical",1.1
same,The level of expressed mRNA in the presence of chemical substance/,"yeast gene YOL071W, ratio to control without chemical",1.6
same,The level of expressed mRNA in the presence of chemical substance/,"yeast gene YOL082W, ratio to control without chemical",1.1
same,The level of expressed mRNA in the presence of chemical substance/,"yeast gene YOL083W, ratio to control without chemical",1.3
same,The level of expressed mRNA in the presence of chemical substance/in the absence of chemical substance,yeast gene YOL096C,1.0
same,The level of expressed mRNA in the presence of chemical substance/,"yeast gene YOL117W, ratio to control without chemical",1.1
same,The level of expressed mRNA in the presence of chemical substance/,"yeast gene YOL131W, ratio to control without chemical",1.1
same,The level of expressed mRNA in the presence of chemical substance/,"yeast gene YOL150C, ratio to control without chemical substance, 2 h culture",3.7
same,The level of expressed mRNA in the presence of chemical substance/,"yeast gene YOL162W, ratio to control without chemical",1.6
same,The level of expressed mRNA in the presence of chemical substance/The level of expressed mRNA in the absence of chemical substance,yeast gene YOL164W,1.0
same,The level of expressed mRNA in the presence of chemical substance/,"yeast gene YOR019W, ratio to control without chemical",1.1
same,The level of expressed mRNA in the presence of chemical substance/The level of expressed mRNA in the absence of chemical substance,yeast gene YOR036W,1.4
same,The level of expressed mRNA in the presence of chemical substance/The level of expressed mRNA in the absence of chemical substance,yeast gene YOR117W,1.0
same,The level of expressed mRNA in the presence of chemical substance/The level of expressed mRNA in the absence of chemical substance,yeast gene YOR124C,1.3
same,The level of expressed mRNA in the presence of chemical substance/The level of expressed mRNA in the absence of chemical substance,yeast gene YOR132W,1.2
same,The level of expressed mRNA in the presence of chemical substance/The level of expressed mRNA in the absence of chemical substance,yeast gene YOR157C,1.2
same,The level of expressed mRNA in the presence of chemical substance/in the absence of chemical substance,yeast gene YOR180C,0.9
same,The level of expressed mRNA in the presence of chemical substance/The level of expressed mRNA in the absence of chemical substance,yeast gene YOR181W,0.7
same,The level of expressed mRNA in the presence of chemical substance/The level of expressed mRNA in the absence of chemical substance,yeast gene YOR185C,1.4
same,The level of expressed mRNA in the presence of chemical substance/,"yeast gene YOR197W, ratio to control without chemical",0.9
same,The level of expressed mRNA in the presence of chemical substance/The level of expressed mRNA in the absence of chemical substance,yeast gene YOR198C,1.3
same,The level of expressed mRNA in the presence of chemical substance/The level of expressed mRNA in the absence of chemical substance,yeast gene YOR259C,1.1
same,The level of expressed mRNA in the presence of chemical substance/The level of expressed mRNA in the absence of chemical substance,yeast gene YOR261C,2.6
same,The level of expressed mRNA in the presence of chemical substance/The level of expressed mRNA in the absence of chemical substance,yeast gene YOR288C,1.9
same,The level of expressed mRNA in the presence of chemical substance/The level of expressed mRNA in the absence of chemical substance,yeast gene YOR355W,0.8
same,The level of expressed mRNA in the presence of chemical substance/in the absence of chemical substance,yeast gene YOR363C,1.1
same,The level of expressed mRNA in the presence of chemical substance/The level of expressed mRNA in the absence of chemical substance,yeast gene YOR383C,1.0
same,The level of expressed mRNA in the presence of chemical substance/,"yeast gene YPL087W, ratio to control without chemical",1.0
same,The level of expressed mRNA in the presence of chemical substance/The level of expressed mRNA in the absence of chemical substance,yeast gene YPL089C,0.8
same,The level of expressed mRNA in the presence of chemical substance/The level of expressed mRNA in the absence of chemical substance,yeast gene YPL109C,1.1
same,The level of expressed mRNA in the presence of chemical substance/The level of expressed mRNA in the absence of chemical substance,yeast gene YPL149W,1.1
same,The level of expressed mRNA in the presence of chemical substance/The level of expressed mRNA in the absence of chemical substance,yeast gene YPL154C,0.8
same,The level of expressed mRNA in the presence of chemical substance/,"yeast gene YPL196W, ratio to control without chemical",1.2
same,The level of expressed mRNA in the presence of chemical substance/,"yeast gene YPL206C, ratio to control without chemical",1.0
same,The level of expressed mRNA in the presence of chemical substance/,"yeast gene YPL222W, ratio to control without chemical",0.7
same,The level of expressed mRNA in the presence of chemical substance/,"yeast gene YPR023C, ratio to control without chemical",0.9
same,The level of expressed mRNA in the presence of chemical substance/The level of expressed mRNA in the absence of chemical substance,yeast gene YPR103W,1.0
same,The level of expressed mRNA in the presence of chemical substance/The level of expressed mRNA in the absence of chemical substance,yeast gene YPR108W,1.6
same,The level of expressed mRNA in the presence of chemical substance/,"yeast gene YPR151C, ratio to control without chemical",1.4
same,The level of expressed mRNA in the presence of chemical substance/in the absence of chemical substance,yeast gene YPR184W,0.7

# Reference: US20050112573A1, “Method of detecting toxic substance” (priority 2001, published 2005)
